# Results reported in patent US6121463A, “Alkyl-4-silylheterocyclic phenols and thiophenols useful as antioxidant agents” (priority 1998, dated 2000).
# How the values were obtained:
# [1] = Serum clinical chemistries in male Sprague-Dawley rats after dietary admixture; type: in vivo, Sprague-Dawley rat; settings: 0.3% diet, 4 days, N=5
# Description: (§1) A typical experiment consists of 4-6 groups of rats (N=5 per group) with 1 group being a control which receives no MDL compound and the other groups being treated with 0.3% MDL compound. Some of the compounds are either repeated at 0.3% or evaluated again at the lower dose of 0.1%. House Male Sprague-Dawley rats, 50-100 g, (Harlan Laboratories, Indianapolis, Ind.) in groups of 5, feeding ad libitum water and Purina Rodent chow (#5002) with or without MDL compound as a dietary admixture for 4 days. Make dietary admixtures (0.3%) by mixing 1.2 grams of an MDL compound with 400 grams of Purina rodent chow (#5002). Mix the MDL compound with approximately 50 grams of food using a mortar and pestle. This is added to the remainder of the food and mixed for 3 hours on a rotary mixer. In the morning of day 5, anesthetize non-fasted rats with carbon dioxide, and collect blood by cardiac puncture. Sacrifice rats by cervical dislocation. Record body weights and liver weights in grams. Record food consumption as grams.cndot.day^-1 .cndot.rat^-1. Deaths are recorded as mortality. Use aliquots of fresh serum for clinical chemistries, thiobarbituric acid reactive substances (TBARS) and conjugated diene measurements. Freeze aliquots of serum (~0.5mL) and whole livers at -20° C. for compound and metabolite concentration determination at a later time.
# Allow blood to clot at room temperature for 30 minutes. Obtain serum after centrifugation for 10 min at 4° C. at 3000 rpm in a Beckman J-6M/E centrifuge with a JS-4.2 rotor. Analyze fresh serum by a COBAS MIRA S autoanalyzer (Roche Diagnostics) using Roche diagnostic reagents for the following clinical chemistry measurements: alkaline phosphatase (ALP, kit #44553), alanine transaminase (ALT, kit #42375), aspartate aminotransferase (AST, kit #42381), total cholesterol (CHOL, kit #44334), triglyceride (TG, kit #44120), and glucose (GLU, kit #44558). Calculate ALP, ALT, and AST as units/L. Calculate cholesterol, triglycerides, and glucose as mg/dL.
# [2] = tested on: oxidation of serum lipids; test: Thiobarbituric acid reactive substances (TBARS) assay in serum of treated rats; type: in vivo, Sprague-Dawley rat; settings: 0.3% diet, 4 days, male rats, N=5; CuSO4 oxidation of serum, 37° C., 3 hr
# Description: as §1, with “Sacrifice rats by cervical dislocation. Record body weights and liver weights in grams. Record food consumption as grams.cndot.day^-1 .cndot.rat^-1.” left out, “Use aliquots of fresh serum for clinical chemistries, thiobarbituric acid reactive substances (TBARS) and conjugated diene measurements. Freeze aliquots of serum (~0.5mL) and whole livers at -20° C. for compound and metabolite concentration determination at a later time.” left out
# In this assay the oxidation of serum lipids is initiated with CuSO4, resulting in the formation of aldehydes, such as malondialdehyde (MDA). Upon incubation with thiobarbituric acid, the absorbance of the aldehydes can be detected at 530-540 nm. […] Measure absorbances at 540 nm using a Biotek model EL311 microplate reader. The nmoles of MDA produced are calculated from a standard curve of 0 to 10 nmoles of MDA prepared from malonaldehyde bis(dimethylacetal). […]
# [3] = Animal parameters in male Sprague-Dawley rats; type: in vivo, Sprague-Dawley rat; settings: 0.3% diet, 4 days; for body wt. as a percent of control / food (grams eaten per day per rat) as a percent of control / lw/bw (liver weight/body weight) as a percent of control: N=5; for mortality at 96 h: rat, in vivo, po, N=5, read-out: mortality (deaths per group)
# Description: as §1
# oxidation of lipids = test: Conjugated diene determination (lag phase) in pooled serum of treated rats; type: in vivo, Sprague-Dawley rat; settings: 0.3% diet, 4 days; mean of 2 determinations of pooled samples, N=5; control = 61 min.
# Description: as §1, with “Use aliquots of fresh serum for clinical chemistries, thiobarbituric acid reactive substances (TBARS) and conjugated diene measurements. Freeze aliquots of serum (~0.5mL) and whole livers at -20° C. for compound and metabolite concentration determination at a later time.” left out
# Conjugated diene lag phase is another indicator of the oxidation of lipids. […] Measure the absorbances of all cuvettes and set the instrument baseline to zero using the lowest absorbing sample. […] Record the absorbance of each cuvette at 2 min intervals for a period of 840 min. […]
# ICAM-1 = settings: vascular endothelial cells; Mauri, N. et al.; cited from earlier work
SMILES,ALP (alkaline phosphatase) as a percent of control [1] [%],ALT (alanine aminotransferase) as a percent of control [1] [%],AST (aspartate aminotransferase) as a percent of control [1] [%],CHOL (total cholesterol) as a percent of control [1] [%],GLUC (glucose) as a percent of control [1] [%],TRIG (triglycerides) as a percent of control [1] [%],TBARS (thiobarbituric acid reactive substances) as a percent of control [2] [%],body wt. as a percent of control [3] [%],food (grams eaten per day per rat) as a percent of control [3] [%],lw/bw (liver weight/body weight) as a percent of control [3] [%],mortality at 96 h [3] [%],CONJ. DIENE (conjugated diene lag phase) (oxidation of lipids) [min],inhibition of cytokine-induced expression of ICAM-1 (ICAM-1)
"CC(C)(C)c1cc(OC[Si](C)(C)c2ccco2)cc(C(C)(C)C)c1O [106,939]",123,92,106,120,83,108,64,92,88,130,0,–,–
"CC(C)(C)c1cc(OC[Si](C)(C)c2cccs2)cc(C(C)(C)C)c1O [107,965]",137,96,89,121,86,90,57,84,84,118,0,273,–
CC(=O)N[C@@H](CS)C(=O)O [N-acetylcysteine],–,–,–,–,–,–,–,–,–,–,–,–,but not ICAM-1
S=C(S)N1CCCC1 [pyrollidine dithiocarbamate],–,–,–,–,–,–,–,–,–,–,–,–,but not ICAM-1
